Results as given in patent US5849587A, “Method of inhibiting viral replication in eukaryotic cells and of inducing apoptosis of virally-infected cells” (Cornell Research Foundation, Inc., priority 1995, dated 1998).
“Also recorded” adds a separate entry of the source.

What was measured:
[1] = system: uninfected parent cell line CEM; experiment: Flow cytometry of genomic DNA 3'-ends (apoptosis), uninfected parent cells; assay type: cell-based, human; settings: for genomic DNA 3'-ends, CEM: 200 μM, 18 hours, FIG. 13
Procedure: FIGS. 13A-F show the flowcytometrically determined distribution of the number of fluorescently labeled 3'-ends in the genomic DNA of HIV-1 producing ACH-2 cells ("ACH-2") and their uninfected parent cell line CEM ("CEM"), both receiving no treatment ("NT") or treatment for 18 hours with either 200 μM mimosine ("MIM") or 200 μM HK-1 ("HK1"). […] This is the hallmark of irreversible auto-destruction of a cell's genetic library.
FIGS. 14A-H show the flowcytometrically determined distribution of the number of fluorescently labeled 3'-ends in the genomic DNA of HIV-1 producing ACH-2 cells ("ACH-2") and of their uninfected parent cell line CEM ("CEM"), both receiving no treatment ("NT") or treatment for 18 hours with 200 μM mimosine ("MIM"), followed by inhibitor withdrawal and reincubation in fresh medium for 2 hours.
ACH-2 cells were incubated with hypusine inhibitors (mimosine, HK-1) and induced with PMA as outlined in Example II A, except that the duration of exposure to inhibitor was extended to 18-21 hours and that cells were labeled as detailed in Example I B. Half of the cells were then harvested and processed for detection of apoptosis, while the other half was washed free of inhibitors and re-incubated in fresh medium for 2-4 hours, followed by harvesting and processing for detection of […] apoptosis. Using the same protocol, cultures of the parent CEM cell line were incubated in parallel. For assessment of apoptosis, cell viability was measured by exclusion of the dye trypan blue, by retention of the ^3 H-spermidine-derived intracellular radioactivity incorporated into the obligatory intracellular protein eIF-5A, and by direct fluorescence detection of the intemucleosomal degradation of genomic DNA. Such irreversible genome degradation signals the activation of pre-programmed suicide mechanisms within any cell, which is the hallmark of apoptosis, and inescapably results in cell death [Compton, Cancer Metast. 11, 105-119 (1992), which is hereby incorporated by reference]. For the latter method, a commercially available kit was used (Oncor, Gaithersburg, Md.). […]

[2] = molecular target: T1, deoxyhypusyl hydroxylase (DOHH) in human T-cell line ACH-2 (Homo sapiens, UniProt Q9BU89); experiment: Deoxyhypusine-to-hypusine conversion by DOHH in ACH-2 cells; assay type: cell-based; settings: for activity at 200 µM: ACH-2, 22 h, 22 hours, ACH-2 cells, FIG. 5, remaining conversion; for resumption of conversion after inhibitor removal: within 2 hours of inhibitor removal, after 200 μM, ACH-2
T1 construct: endogenous in cells; host or cells: ACH-2 (human T-cell line, subclone of the A3.01 variant of CEM)
T1 sequence (Q9BU89 1-302): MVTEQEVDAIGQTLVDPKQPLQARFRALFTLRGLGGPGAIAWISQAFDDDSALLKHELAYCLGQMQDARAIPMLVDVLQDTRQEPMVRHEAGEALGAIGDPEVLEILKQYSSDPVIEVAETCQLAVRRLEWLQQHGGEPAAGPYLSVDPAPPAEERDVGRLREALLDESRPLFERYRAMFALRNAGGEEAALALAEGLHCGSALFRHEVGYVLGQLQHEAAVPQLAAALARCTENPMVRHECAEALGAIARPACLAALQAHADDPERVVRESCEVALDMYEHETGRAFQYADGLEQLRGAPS
Procedure: DOHH Assay. The intracellular conversion of peptide-bound deoxyhypusine to peptidyl hypusine was determined after preincubation of human T lymphocyte-derived cells (i.e. ACH-2) [Clouse et al., J. Immunol. 142, 431-438 (1989), which is hereby incorporated by reference] with the hypusine inhibitors mimosine and HK-1 for 60 minutes, followed by labeling for 21 hours with ^3 H-spermidine (3.75 μCi/ml) in wells containing 3×10^6 cells suspended in 8 ml of serum-supplemented and antibiotic-containing RPMI 1640 medium. Cells were then split into two groups, one of them being harvested immediately to assess degree of DOHH inhibition, and the other harvested after transfer of the cells into inhibitor-free medium for 2 hours to measure resumption of DOHH activity. Harvesting consisted in precipitation of washed cells with 10% TCA containing 1 mM each of putrescine, spermidine, and spermine. Cellular proteins from each sample were then hydrolyzed in 6N HCl at 110° C. for 16 hours. The hydrolysate was analyzed for labeled amino acids on an amino acid analyzer by published methods [Park et al., J. Biol. Chem., 257, 7217-7222 (1982), which is hereby incorporated by reference]. The retention times of hypusine and deoxyhypusine were determined from standards. Similar studies were performed in human B-cells and human smooth muscle cells.

HIV-1 RNA = experiment: Splicing analysis (Northern blot) of HIV-1 RNA in PMA-induced ACH-2 cells; assay type: cell-based; settings: 200 μM, FIG. 7
Excerpt: At about 9-kb is the position of unspliced viral MRNA species representing the infectious viral genome and encoding key structural proteins for core and capsid. At about 4-kb is the position of incompletely spliced viral MRNA species encoding structural and regulatory proteins. At about 2-kb is the position of completely spliced viral MRNA species encoding regulatory proteins, such as Rev. […] Lane B is for the high level expression of HIV-1 RNA after induction with PMA; note the presence of the 9-kb species.
ACH-2 cells were incubated with hypusine inhibitors (mimosine, HK-1) and induced with PMA as outlined in Example II A. From control cells, from cells induced with PMA, and from PMA-induced cells treated with 200 μM mimosine/HK-1, in each case aliqouts of 1.2×10^7 cells, the total cellular RNA was isolated by the guanidinium isothiocyanate-cesium chloride method [Chirgwin et al., Biochemistrv 18, 5294-5299 (1979), which is hereby incorporated by reference]. Equal quantities of RNA from each cell sample were electrophoresed on a 1% agarose-formaldehyde gel, transferred to nitrocellulose, and hybridized with randomly primed, ^32 P-dCTP-labeled genomic HIV-1 probe pBH10 [Ratner et al., Nature 313, 277-284 (1985), which is hereby incorporated by reference]. Following hybridization, the blots were washed extensively, dried, and autoradiographed. […]

HIV-1 = experiment: Titration assay of infectivity of virus (TCID50) produced by infected H9 cells, CEM target cells; assay type: cell-based; settings: 48 hours, increasing concentrations
Procedure: 1. Dose-dependency of antiviral effect. Cells of the human T lymphocyte line H9, chronically and productively infected with the Lai (IIIb) strain of HIV-1, were harvested during logarithmic proliferation, extensively washed to remove viral antigens and infectious particles, and re-suspendedin serum-supplemented and antibiotic-containing RPMI 1640 medium at a density of 2×10^5 cells/ml. After incubation with increasing concentrations of mimosine or HK-1 for 48 hours, the cells were harvested, lysed, and used to determine the intracellular amount of the p24 antigen derived from the p55 Gag polyprotein, using a commercially available, p24-specific ELISA method (Coulter, Hialeah, Fla.); the same method was also used to quantify the extracellular level of p24 antigen that had accumulated in the supernatant during incubation with the hypusine inhibitors. In addition, titration assays were performed using CEM target cells to measure the infectivity of virus produced in the absence and presence of the hypusine inhibitors using the procedure of Prince et al., Proc. Natl. Acad. Sci. USA 85, 6944-6948 (1988), which is hereby incorporated by reference. The half-maximal tissue culture infectious doses (TCID50) of HIV-1 per ml of test sample were calculated by the Spearman-Karber method.

| SMILES | genomic DNA 3'-ends, CEM [1] | activity at 200 µM [2] | resumption of conversion after inhibitor removal [2] | HIV-1 RNA splicing pattern (HIV-1 RNA) | production of infectious HIV-1 particles / infectivity of virus (HIV-1) | average fluorescence peak after incubation and withdrawal, CEM ([1]; 200 μM 18 hours, then 2 hours withdrawal, FIG. 14) |
| --- | --- | --- | --- | --- | --- | --- |
| Cc1c(O)c(=O)ccn1C [HK-1, 1,2-dimethyl-3-hydroxypyrid-4-one] | did not affect the position of this peak in uninfected CEM cells; also recorded: Only the virally-infected ACH-2, but not the parent CEM cells reacted to the inhibitors | ≤ 10% | almost tripled; also recorded: recovers readily and triples within the first 2 hours of inhibitor removal | apparent lack of 9-kb and 4-kb species | dose-dependently suppressive effect |  |
| N[C@@H](Cn1ccc(=O)c(O)c1)C(=O)O [L-Mimosine] | did not affect the position of this peak in uninfected CEM cells; also recorded: Only the virally-infected ACH-2, but not the parent CEM cells reacted to the inhibitors | ≤ 10% | almost tripled; also recorded: recovers readily and triples within the first 2 hours of inhibitor removal | apparent lack of the 9-kb species | dose-dependently suppressive effect | the position and shape of the average fluorescence peak in CEM cells did not change; also recorded: Only the virally infected ACH-2, but not the parent CEM cells reacted to the inhibitor |
